Laboratory results from PMC8151276, “An Integrated Approach toward NanoBRET Tracers for Analysis of GPCR Ligand Engagement” (Molecules, 2021).

Molecular target: T1, DRD1 (Homo sapiens, UniProt P21728)
T1 construct: purchased Promega (in-house HiBiT-GPCR construct library, NanoBRET)
Assay: NanoBRET screen HiBiT-DRD1 in HEK293
Assay type: binding
Experimental: Each tracer candidate was screened across the entire library of HiBiT-GPCR constructs using NanoBRET as the detection modality. As depicted in Figure 4A, the specificity of interactions was evaluated through decrease in BRET due to competitive displacement of a bound tracer by excess parental compound. Each tracer was analyzed for binding to each HiBiT-GPCR fusion in the absence and in the presence of competing parental compound. Briefly, HEK293 cells were transfected with HiBiT-GPCR constructs diluted into promoterless DNA to reduce expression and maximize translocation to the cell surface. Each tracer candidate was then screened at concentrations of 1 μM and 0.1 μM across cells expressing these fusions. Cells were treated for 1.5 h with tracer either alone or in the presence of 20 μM competing parental compound (i.e., control). BRET was measured upon addition of purified LgBiT and subsequent complementation with HiBiT genetically fused to a GPCR. The specificity of interactions was assessed through a decrease in BRET signal due to competitive displacement of the bound tracer. To further gauge the robustness of these interactions, the fold response over the control (i.e., BRETtracer/BRETcontrol) was calculated. We chose a 1.5-fold response, which translates to ≥7-fold signal over noise as the minimal threshold required to score an interaction as positive.
HiBiT-GPCR DNA constructs were diluted in 10 mM Tris pH 8 to a final concentration of 0.01 μg/μL, arrayed in 96-well plates and stored at −20 °C. For transfection, HEK293 cells were suspended in Opti-MEM (without phenol red) supplemented with 2% fetal bovine serum (Seradigm) and 100 units/mL penicillin–streptomycin (Gibco) at a final concentration of 220,000 cells/mL and dispensed into white 96-well plates at 90 μL/well. Subsequent transfections and screens were carried using an Agilent Bravo Automated Liquid Handling Platform. First, the 96-well HiBiT DNA arrays were diluted 25-fold in Opti-MEM (without serum or phenol red) to a final concentration of 0.0004 μg/μL and 20 μL of the diluted DNAs were transferred into new 96-well plates. Next, promoterless carrier DNA (1 μg/μL) was diluted 25-fold (0.04 μg/μL) and then dispensed into the diluted arrays at 20 μL/well. Following brief mixing, Viafect transfection reagent (Promega) diluted 16-fold into Opti-MEM was dispensed into the plates at 40 μL/well. After mixing by pipetting, plates were incubated for 10 min on the pipetting station deck. The DNA-transfection reagent complexes were then added to plates containing cells. To facilitate the screen, 10 μL of DNA-transfection reagent complexes were added in duplicates to the top 4 and bottom 4 rows, resulting in two identical 48-well arrays per plate. Plates with transfected cells were incubated for 18–20 h at 37 °C/5% CO2. A screen of each tracer across the entire library using two different concentrations requires duplicate plates of transfected cells. Depending on the number of tracers being screened, transfections can be scaled up using the same ratios. The next day, for each tracer, four 20× screening solutions in tracer dilution buffer (Promega) were prepared: two duplicates at final concentration of 20 μM and two duplicates at a final concentration of 2 μM. […] The four resulting solutions were diluted 4-fold in Opti-MEM without serum or phenol red to generate 5× solutions (5 µM and 0.5 µM tracer +/− 100 μM competing compound). To screen the library, a BioTek MultiFlo FX liquid dispenser was used to dispense 22.5 µL of tracer solution to the top 4 rows and 22.5 µL tracer + competing compound solution to the 4 bottom rows. Plates were briefly mixed on an orbital shaker and incubated for 1.5 h at room temperature. […] Plates were briefly mixed on an orbital shaker and incubated for 15 min to allow complementation.

T1 sequence (P21728 whole entry): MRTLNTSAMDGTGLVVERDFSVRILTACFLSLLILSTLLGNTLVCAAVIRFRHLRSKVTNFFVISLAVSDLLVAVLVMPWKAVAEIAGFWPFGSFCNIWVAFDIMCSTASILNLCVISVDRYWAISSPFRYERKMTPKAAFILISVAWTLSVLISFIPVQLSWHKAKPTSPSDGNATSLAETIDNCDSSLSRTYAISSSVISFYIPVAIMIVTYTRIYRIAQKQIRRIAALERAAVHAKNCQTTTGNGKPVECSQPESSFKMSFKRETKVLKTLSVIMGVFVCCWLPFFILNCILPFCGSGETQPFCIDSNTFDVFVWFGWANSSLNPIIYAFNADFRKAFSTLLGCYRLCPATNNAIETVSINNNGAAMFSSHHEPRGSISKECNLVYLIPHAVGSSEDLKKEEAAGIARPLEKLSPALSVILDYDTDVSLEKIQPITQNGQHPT

Row | Compound | NanoBRET Fold Response (DRD1, tracer 0.1μM) | NanoBRET Fold Response (DRD1, tracer 1μM) | further results
1 | Cc1nc2n(c(=O)c1CCN1CCC(c3noc4cc(F)ccc34)CC1)CCCC2OC(=O)NCCOCCOCCOCCOCCNC(=O)CCc1ccc2n1[B-](F)(F)[N+]1=C(c3ccc[nH]3)C=CC1=C2 (stereo not drawn) [Risperidone-2-NB590] | 2.20 | 2.38 | 
2 | CCOC(=O)c1cc(C#N)c(N2CCC(C(=O)NS(=O)(=O)Cc3ccccc3/C=C/C(=O)NCCNC(=O)CCc3ccc4n3[B-](F)(F)[N+]3=C(c5ccc[nH]5)C=CC3=C4)CC2)nc1C [AZD1283-1-NB590] |  |  | NanoBRET Fold Response (DRD1, 0.1μM): 1.07; NanoBRET Fold Response (DRD1, 1μM): 1.10
3 | Cc1cc2c(s1)Nc1ccccc1N=C2N1CCN(CCCNC(=O)CCOCCOCCOCCOCCNC(=O)CCc2ccc3n2[B-](F)(F)[N+]2=C(c4ccc[nH]4)C=CC2=C3)CC1 [Olanzapine-a-2-NB590] | 2.04 | 3.08 | 
4 | COc1ccccc1N1CCN(CCCCN2C(=O)c3ccc(CNC(=O)CCOCCNC(=O)c4ccc(CNC(=O)CCc5ccc6n5[B-](F)(F)[N+]5=C(c7ccc[nH]7)C=CC5=C6)cc4)cc3C2=O)CC1 [NAN-190-3-NB590] | 1.75 | 1.32 | 
5 | CC(C)N(CC[C@H](c1ccccc1)c1cc(CCNC(=O)CCOCCOCCOCCOCCNC(=O)CCc2ccc3n2[B-](F)(F)[N+]2=C(c4ccc[nH]4)C=CC2=C3)ccc1O)C(C)C [Tolterodine-2-NB590] | 0.94 | 1.01 | 
6 | CN(C)CCC=C1c2ccccc2CCc2ccc(C(=O)NCCNC(=O)CCOCCOCCOCCOCCNC(=O)CCc3ccc4n3[B-](F)(F)[N+]3=C(c5ccc[nH]5)C=CC3=C4)cc21 [Amitriptyline-b-2-NB590] |  |  | NanoBRET Fold Response (tracer at 0.1μM, listed as amitriptyline-b-2-NB590): 1.39; NanoBRET Fold Response (tracer at 1μM, listed as amitriptyline-b-2-NB590): 1.97
7 | O=C(CCOCCOCCOCCOCCNC(=O)CCc1ccc2n1[B-](F)(F)[N+]1=C(c3ccc[nH]3)C=CC1=C2)NCCCN1CCN(C2=Nc3ccccc3Oc3ccc(Cl)cc32)CC1 [Loxapine-a-2-NB590] | 1.65 | 2.64 | 
8 | CN(C)CCC=C1c2ccccc2CCc2ccc(C(=O)NCCNC(=O)CCOCCOCCOCCOCCNC(=O)CCc3ccc4n3[B-](F)(F)[N+]3=C(c5ccc[nH]5)C=CC3=C4)cc21 [Amitriptyline-a-2-NB590] |  |  | NanoBRET Fold Response (tracer at 0.1μM): 1.04; NanoBRET Fold Response (tracer at 1μM): 1.23
9 | O=C(CCc1ccc2n1[B-](F)(F)[N+]1=C(c3ccc[nH]3)C=CC1=C2)NCCOCCOCCNC(=O)OCCOCCN1CCN(C2=Nc3ccccc3Sc3ccccc32)CC1 [Quetiapine-a-2-NB590] | 1.65 | 1.97 | 
10 | COc1ccccc1N1CCN(CCCCN2C(=O)c3ccc(CNC(=O)CCOCCOCCOCCOCCNC(=O)CCc4ccc5n4[B-](F)(F)[N+]4=C(c6ccc[nH]6)C=CC4=C5)cc3C2=O)CC1 [NAN-190-2-NB590] | 1.23 | 1.53 | 
11 | N#CN/C(=N\CCNC(=O)c1ccc(N)cc1)NCCCOc1cccc(CN2CCCCC2)c1 [Aminopotentidine (unmodified)] |  |  | NanoBRET Fold Response (DRD1, other tracers/Aminopotentidine (unmodified), 0.1μM): 1.10; NanoBRET Fold Response (DRD1, other tracers/Aminopotentidine (unmodified), 1μM): 1.11
12 | COc1ccc2[nH]c(-c3ccc(CNC(=O)CCOCCOCCOCCOCCNC(=O)CCc4ccc5n4[B-](F)(F)[N+]4=C(c6ccc[nH]6)C=CC4=C5)cc3)c(CCNC(C)=O)c2n1 [AzomelatoninICO9-2-NB590] |  |  | NanoBRET Fold Response (0.1μM tracer): 0.98; NanoBRET Fold Response (1μM tracer): 0.94
13 | O=C(CCOCCOCCOCCOCCNC(=O)CCc1ccc2n1[B-](F)(F)[N+]1=C(c3ccc[nH]3)C=CC1=C2)NCCCN1CCN(C2=Nc3cc(Cl)ccc3Nc3ccccc32)CC1 [Clozapine-a-2-NB590] |  |  | NanoBRET Fold Response (DRD1, 0.1μM tracer): 3.20; NanoBRET Fold Response (DRD1, 1μM tracer): 3.32
14 | CCCn1c(=O)c2[nH]c(-c3ccc(OCC(=O)NCCNC(=O)CCOCCNC(=O)c4ccc(CNC(=O)CCc5ccc6n5[B-](F)(F)[N+]5=C(c7ccc[nH]7)C=CC5=C6)cc4)cc3)nc2n(CCC)c1=O [XAC-3-NB590] | 0.90 | 1.11 | 
15 | O=C(CCc1ccc2n1[B-](F)(F)[N+]1=C(c3ccc[nH]3)C=CC1=C2)NCc1ccc(C(=O)NCCOCCOCCNCC(O)COc2cccc3ccccc23)cc1 (stereo not drawn) [Propranolol-3-NB590] |  |  | NanoBRET Fold Response (DRD1, 0.1μM): 1.01; NanoBRET Fold Response (DRD1, 1μM): 0.98
16 | O=C(CCc1ccc2n1[B-](F)(F)[N+]1=C(c3ccc[nH]3)C=CC1=C2)NCc1ccc(C(=O)NCCOCCC(=O)N[C@@H]2CC[C@@]3(O)[C@H]4Cc5ccc(O)c6c5[C@@]3(CCN4CC3CC3)[C@H]2O6)cc1 [Naltrexone-3-NB590] | 0.98 | 1.03 | 
17 | CN(CCC=C1c2ccccc2CCc2ccccc21)C(=O)CCOCCOCCOCCOCCNC(=O)CCc1ccc2n1[B-](F)(F)[N+]1=C(c3ccc[nH]3)C=CC1=C2 [Amitriptyline-e-2-NB590] |  |  | NanoBRET Fold Response (tracer at 1μM): 1.12
18 | N#CN=C(NCCCOc1cccc(CN2CCCCC2)c1)NCCNC(=O)CCOCCOCCOCCOCCNC(=O)CCc1ccc2n1[B-](F)(F)[N+]1=C(c3ccc[nH]3)C=CC1=C2 [Aminopotentidine-2-NB590] | 1.04 | 1.06 | 
19 | COc1ccc2c(n1)c(CCNC(C)=O)cn2CCNC(=O)CCc1ccc2n1[B-](F)(F)[N+]1=C(c3ccc[nH]3)C=CC1=C2 [Azamelatonin-1-NB590] |  |  | NanoBRET Fold Response (0.1μM tracer): 0.92; NanoBRET Fold Response (1μM tracer): 0.96
20 | CC(C)N(CC[C@H](c1ccccc1)c1cc(CCNC(=O)c2ccc(CNC(=O)CCc3ccc4n3[B-](F)(F)[N+]3=C(c5ccc[nH]5)C=CC3=C4)cc2)ccc1O)C(C)C [Tolterodine-BZ-NB590] | 1.28 | 1.39 | 
